# Source: patent US20220330549A1, “USE OF N-BENZYLBENZAMIDE-BASED COMPOUND AS HERBICIDE” (Northwest A&F University, priority 2020, published 2022)
# Experiments:
# Assay type in all cases: in vivo
# Barnyard grass [1] = experiment: Herbicidal activity test for indoor pre-emergence soil treatment; parameters: key: level 1-9; higher = more weed remaining vs blank control; settings: 150 g a.i./ha, visual inspection 21 days after treatment
# Summary of the method: (§1)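 Compounds were formulated as 10% emulsifiable concentrates and sprayed onto the soil 24 h after sowing, at 150 g(a.i.)/ha. Soil was sandy loam (≤2% organic matter), with seeds under 0.5–2.0 cm cover, per NY/T 1155.3-2006. Visual 1–9 ratings relative to blank control were made after 21 days.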
# Piemarker [2] = experiment: as above; parameters: key: level 1-9; higher = more weed remaining vs blank control; settings: 150 g a.i./ha, visual inspection 21 days after treatment
# Summary of the method: as §1
# green bristlegrass [3] = experiment: as above; parameters: key: level 1-9; higher = more weed remaining vs blank control; settings: 150 g a.i./ha, visual inspection 21 days after treatment
# Summary of the method: as §1
# Amaranthus retroflexus [4] = experiment: as above; parameters: key: 1-9 levels; higher = more weed remaining vs blank control; settings: 150 g a.i./ha, visual inspection 21 days after treatment
# Summary of the method: as §1
# Digitaria sanguinalis [5] = experiment: as above; parameters: key: 1-9 levels; higher = more weed remaining vs blank control; settings: 150 g a.i./ha, visual inspection 21 days after treatment
# Summary of the method: as §1
# Humulus scandens [6] = experiment: as above; settings: 150 g a.i./ha, visual inspection 21 days after treatment
# Summary of the method: as §1
# Amaranthus retroflexus [7] = experiment: Herbicidal activity test for indoor post-emergence spraying on stems and leaves; parameters: key: grade level by weed remaining vs blank control, e.g. 5 = 10.1-15%; settings: 150 g a.i./ha, visual inspection 21 days after treatment
# Summary of the method: (§2)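 Visual inspection at 21 days after treatment gave a level rating, each level defined as a percentage band of the weed remaining in the blank control area. Plants were sprayed on stems and leaves after emergence, following NY/T 1155.4-2006.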
# Barnyard grass [8] = experiment: as above; parameters: key: grade level by weed remaining vs blank control, e.g. 5 = 10.1-15%; settings: 150 g a.i./ha, visual inspection 21 days after treatment
# Summary of the method: as §2
# Digitaria sanguinalis [9] = experiment: as above; parameters: key: grade level by weed remaining vs blank control, e.g. 5 = 10.1-15%; settings: 150 g a.i./ha, visual inspection 21 days after treatment
# Summary of the method: as §2
# Humulus scandens [10] = experiment: as above; parameters: key: grade level by weed remaining vs blank control, e.g. 5 = 10.1-15%; settings: 150 g a.i./ha, visual inspection 21 days after treatment
# Summary of the method: as §2
# Piemarker [11] = experiment: as above; parameters: key: grade level by weed remaining vs blank control, e.g. 5 = 10.1-15%; settings: 150 g a.i./ha, visual inspection 21 days after treatment
# Summary of the method: as §2
# green bristlegrass [12] = experiment: as above; parameters: key: grade level by weed remaining vs blank control, e.g. 5 = 10.1-15%; settings: 150 g a.i./ha, visual inspection 21 days after treatment
# Summary of the method: as §2
# Broadleaf weed = experiment: Post-emergence herbicidal activity test in a paddy field; parameters: key: level scale; higher level = more weed left vs blank control; settings: 150 g a.i./ha (penoxsulam control 250 g(a.i.)/h)
# Summary of the method: (§3)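 Efficacy was visually estimated 15 and 30 days after spraying, grading weed coverage relative to an untreated neighbouring plot (level 2 = 0 to 2.5%, level 9 = 67.6 to 100%). Treatments were 150 g(a.i.)/ha from 10% emulsifiable concentrates applied at the 4-5 leaf rice stage, four repeats of 50 m^2 each.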
# Cyperaceae = experiment: as above; parameters: key: level scale; higher level = more weed left vs blank control; settings: 150 g a.i./ha (penoxsulam control 250 g(a.i.)/h)
# Summary of the method: as §3
# Gramineae = experiment: as above; parameters: key: level scale; higher level = more weed left vs blank control; settings: 150 g a.i./ha (penoxsulam control 250 g(a.i.)/h)
# Summary of the method: as §3
# Acalypha australis = experiment: Field test for weed control in a corn field; settings: 150 g a.i./ha, after treatment
# Summary of the method: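 Post-emergence field trial in a corn field following GB/T 17980.42-2000. Test compounds were formulated as 10% emulsifiable concentrates, diluted in water, and sprayed at 150 g(a.i.)/ha when corn had 2 to 5 leaves, with 4 replicates on 20 m^2 plots. Mesotrione 25% oil dispersion served as the control agent. Weed control was scored on a 1-9 scale.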
# Amaranthus retroflexus [13] = experiment: Field test for weed control in a corn field; settings: 150 g a.i./ha, 30 days after treatment
# Summary of the method: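 Field efficacy trial in a corn field following GB/T 17980.42-2000. Test compounds were formulated as 10% emulsifiable concentrates, diluted in water and sprayed post-emergence when corn had 2 to 5 leaves. Each treatment covered 20 m^2 with 4 replicates. A 25% mesotrione oil dispersion served as control. Damage to Amaranthus retroflexus was rated on a 1-9 scale against untreated blank plots.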
# Barnyard grass [14] = experiment: Field test for weed control in a corn field; settings: 150 g a.i./ha, 30 days after treatment
# Summary of the method: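 Corn-field efficacy trial following GB/T 17980.42-2000. Test compounds were formulated as 10% emulsifiable concentrates, diluted in water and sprayed post-emergence at 150 g(a.i.)/ha when corn had 2 to 5 leaves. Each treatment was replicated 4 times on 20 m^2 plots. Barnyard grass control was rated on a 1-9 damage scale.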
# Chenopodium album = experiment: Field test for weed control in a corn field; settings: 150 g a.i./ha, after treatment
# Summary of the method: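 A corn-field efficacy trial following GB/T 17980.42-2000 tested post-emergence control of Chenopodium album. Test compounds formulated as 10% emulsifiable concentrates were diluted in water and sprayed at 150 g(a.i.)/ha when the corn had 2 leaves to 5 leaves, on 20 m^2 plots with 4 replicates. Herbicidal activity was rated on a 1-9 scale by damage symptoms and severity.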
# Convolvulus arvensis = experiment: Field test for weed control in a corn field; settings: 150 g a.i./ha, after treatment
# Summary of the method: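 Field trial of weed control against Convolvulus arvensis in corn, run following GB/T 17980.42-2000. Test agents were formulated as 10% emulsifiable concentrates and sprayed in water at 150 g(a.i.)/ha when corn plants had 2 to 5 leaves. Each treatment was replicated 4 times on 20 m^2 plots, and 25% mesotrione oil dispersion served as the control agent.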
# Digitaria sanguinalis [15] = experiment: Field test for weed control in a corn field; settings: 150 g a.i./ha, after treatment
# Summary of the method: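 Field trial in a corn field following GB/T 17980.42-2000. Test compounds were formulated as 10% emulsifiable concentrates, diluted in water and sprayed post-emergence at 150 g(a.i.)/ha when corn had 2 to 5 leaves, with 4 replicates on 20 m^2 plots. Control of Digitaria sanguinalis was scored on a 1-9 scale based on weed damage relative to the untreated blank area.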
# Portulaca oleracea = experiment: Field test for weed control in a corn field; settings: 150 g a.i./ha, after treatment
# Summary of the method: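 Field efficacy trial in corn following GB/T 17980.42-2000. Test compounds were prepared as 10% emulsifiable concentrates, diluted in water, and sprayed at 150 g(a.i.)/ha when corn had 2 to 5 leaves after sowing. Plots were 20 m^2 with 4 replicates per treatment. Herbicidal activity was scored on a 1-9 scale from weed damage symptoms and severity.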
# Solanum nigrum = experiment: Field test for weed control in a corn field; settings: 150 g a.i./ha, 30 days after treatment
# Summary of the method: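 Post-emergence weed control was tested in a corn field following GB/T 17980.42-2000. Compounds were made into 10% emulsifiable concentrates, diluted in water and sprayed at 150 g(a.i.)/ha when corn had 2 to 5 leaves after sowing, in 20 m^2 plots with 4 replicates. Effects on Solanum nigrum were graded on a 1-9 scale relative to the blank control area.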
# goosegrass = experiment: Field test for weed control in a corn field; settings: 150 g a.i./ha, after treatment
# Summary of the method: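 Weed control efficacy against goosegrass was tested in a corn field following GB/T 17980.42-2000. Compounds formulated as 10% emulsifiable concentrates were diluted in water and sprayed post-emergence at 150 g(a.i.)/ha when corn had 2 to 5 leaves, with 4 replicates of 20 m^2 plots. Herbicidal activity was rated on a 1-9 scale by damage symptoms and severity.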
# green bristlegrass [16] = experiment: Field test for weed control in a corn field; settings: 150 g a.i./ha, after treatment
# Summary of the method: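 Post-emergence weed control was tested in a corn field following GB/T 17980.42-2000. When the corn had 2 leaves to 5 leaves after sowing, 10% emulsifiable concentrates diluted in water were sprayed at 150 g(a.i.)/ha on 20 m^2 plots, four replicates per treatment. Effects on green bristlegrass were scored on a 1-9 damage scale relative to the blank control area.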
# nutgrass flatsedge = experiment: Field test for weed control in a corn field; settings: 150 g a.i./ha, after treatment
# Summary of the method: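 A corn field efficacy trial following GB/T 17980.42-2000 assessed post-emergence control of nutgrass flatsedge. Test compounds were formulated as 10% emulsifiable concentrates, diluted in water, and sprayed at 150 g(a.i.)/ha when the corn had 2 to 5 leaves. Each treatment had 4 replicates on 20 m^2 plots. Herbicidal activity was graded on a 1-9 scale by damage symptoms and severity.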
smiles,measurement,setting,value
"COc1ccccc1C(=O)NCc1cc(F)cc(F)c1 [Compound A03, N-(3,5 difluorobenzyl)-2-methoxybenzamide]",Herbicidal Activity Barnyard grass,Barnyard grass [1],1
same,Herbicidal Activity Piemarker,Piemarker [2],1
same,Herbicidal Activity Green bristlegrass,green bristlegrass [3],1
same,Herbicidal Activity Amaranthus retroflexus,Amaranthus retroflexus [4],1
same,Herbicidal Activity Digitaria sanguinalis,Digitaria sanguinalis [5],2 (equivalent to 0 to 2.5% of the weed in the blank control area)
same,Herbicidal Activity Humulus scandens,Humulus scandens [6],2 (equivalent to 0 to 2.5% of the weed in the blank control area)
same,Herbicidal Activity Amaranthus retroflexus,Amaranthus retroflexus [7],1
same,Herbicidal Activity Barnyard grass,Barnyard grass [8],1
same,Herbicidal Activity Digitaria sanguinalis,Digitaria sanguinalis [9],2 (equivalent to 0 to 2.5% of the weed in the blank control area)
same,Herbicidal Activity Humulus scandens,Humulus scandens [10],1
same,Herbicidal Activity Piemarker,Piemarker [11],1
same,Herbicidal Activity Green bristlegrass,green bristlegrass [12],1
same,Herbicidal activity 15 days after treatment Broadleaf weed,Broadleaf weed,1
same,Herbicidal activity 30 days after treatment Broadleaf weed,Broadleaf weed,2 (equivalent to 0 to 2.5% of the weed in the blank control area)
same,Herbicidal activity 15 days after treatment Cyperaceae,Cyperaceae,2 (equivalent to 0 to 2.5% of the weed in the blank control area)
same,Herbicidal activity 30 days after treatment Cyperaceae,Cyperaceae,1
same,Herbicidal activity 15 days after treatment Gramineae,Gramineae,2 (equivalent to 0 to 2.5% of the weed in the blank control area)
same,Herbicidal activity 30 days after treatment Gramineae,Gramineae,1
same,"Post-emergence weed control effect, Acalypha australis",Acalypha australis,2 (equivalent to 0 to 2.5% of the weed in the blank control area)
same,"Post-emergence weed control effect, Amaranthus retroflexus",Amaranthus retroflexus [13],1
same,"Post-emergence weed control effect, Barnyard grass",Barnyard grass [14],1
same,"Post-emergence weed control effect, Chenopodium album",Chenopodium album,1
same,"Post-emergence weed control effect, Convolvulus arvensis",Convolvulus arvensis,1
same,"Post-emergence weed control effect, Digitaria sanguinalis",Digitaria sanguinalis [15],1
same,"Post-emergence weed control effect, Portulaca oleracea",Portulaca oleracea,1
same,"Post-emergence weed control effect, Solanum nigrum",Solanum nigrum,1
same,"Post-emergence weed control effect, Goose grass",goosegrass,2 (equivalent to 0 to 2.5% of the weed in the blank control area)
same,"Post-emergence weed control effect, Green bristlegrass",green bristlegrass [16],2 (equivalent to 0 to 2.5% of the weed in the blank control area)
same,"Post-emergence weed control effect, Nutgrass flatsedge",nutgrass flatsedge,2 (equivalent to 0 to 2.5% of the weed in the blank control area)
COc1ncccc1C(=O)NCc1cccc(Cl)c1 [Compound A91],Herbicidal Activity Barnyard grass,Barnyard grass [1],1
same,Herbicidal Activity Piemarker,Piemarker [2],1
same,Herbicidal Activity Green bristlegrass,green bristlegrass [3],1
same,Herbicidal Activity Amaranthus retroflexus,Amaranthus retroflexus [4],1
same,Herbicidal Activity Digitaria sanguinalis,Digitaria sanguinalis [5],2 (equivalent to 0 to 2.5% of the weed in the blank control area)
same,Herbicidal Activity Humulus scandens,Humulus scandens [6],2 (equivalent to 0 to 2.5% of the weed in the blank control area)
same,Herbicidal Activity Amaranthus retroflexus,Amaranthus retroflexus [7],1
same,Herbicidal Activity Barnyard grass,Barnyard grass [8],1
same,Herbicidal Activity Digitaria sanguinalis,Digitaria sanguinalis [9],1
same,Herbicidal Activity Humulus scandens,Humulus scandens [10],1
same,Herbicidal Activity Piemarker,Piemarker [11],1
same,Herbicidal Activity Green bristlegrass,green bristlegrass [12],1
same,Herbicidal activity 15 days after treatment Broadleaf weed,Broadleaf weed,1
same,Herbicidal activity 30 days after treatment Broadleaf weed,Broadleaf weed,1
same,Herbicidal activity 15 days after treatment Cyperaceae,Cyperaceae,1
same,Herbicidal activity 30 days after treatment Cyperaceae,Cyperaceae,1
same,Herbicidal activity 15 days after treatment Gramineae,Gramineae,2 (equivalent to 0 to 2.5% of the weed in the blank control area)
same,Herbicidal activity 30 days after treatment Gramineae,Gramineae,2 (equivalent to 0 to 2.5% of the weed in the blank control area)
same,"Post-emergence weed control effect, Acalypha australis",Acalypha australis,2 (equivalent to 0 to 2.5% of the weed in the blank control area)
same,"Post-emergence weed control effect, Amaranthus retroflexus",Amaranthus retroflexus [13],1
same,"Post-emergence weed control effect, Barnyard grass",Barnyard grass [14],1
same,"Post-emergence weed control effect, Chenopodium album",Chenopodium album,1
same,"Post-emergence weed control effect, Convolvulus arvensis",Convolvulus arvensis,1
same,"Post-emergence weed control effect, Digitaria sanguinalis",Digitaria sanguinalis [15],2 (equivalent to 0 to 2.5% of the weed in the blank control area)
same,"Post-emergence weed control effect, Portulaca oleracea",Portulaca oleracea,1
same,"Post-emergence weed control effect, Solanum nigrum",Solanum nigrum,2 (equivalent to 0 to 2.5% of the weed in the blank control area)
same,"Post-emergence weed control effect, Goose grass",goosegrass,2 (equivalent to 0 to 2.5% of the weed in the blank control area)
same,"Post-emergence weed control effect, Green bristlegrass",green bristlegrass [16],2 (equivalent to 0 to 2.5% of the weed in the blank control area)
same,"Post-emergence weed control effect, Nutgrass flatsedge",nutgrass flatsedge,2 (equivalent to 0 to 2.5% of the weed in the blank control area)
